Structures are written as SMILES.

For 50 compounds, IC50 results are on record in patent US10450301B2, “Apoptosis signal-regulating kinase 1 inhibitors and methods of use thereof” (ENANTA PHARMACEUTICALS, INC., priority 2017, dated 2019).

The target of the assay is ASK1 (Homo sapiens (Human), UniProt Q99683). Put plainly: HTRF KinEASE Assay (TR-FRET, STK3 peptide substrate), inhibition of ASK1. It is filed as biochemical. Particulars: 5 nM ASK1 kinase, 1 μM STK3 peptide substrate, 100 μM ATP, 3 hours; compound 0 to 10 μM. As for the experimental part: Assay HTRF® KinEASE™ Assay
Sequence of ASK1 (Q99683 whole entry): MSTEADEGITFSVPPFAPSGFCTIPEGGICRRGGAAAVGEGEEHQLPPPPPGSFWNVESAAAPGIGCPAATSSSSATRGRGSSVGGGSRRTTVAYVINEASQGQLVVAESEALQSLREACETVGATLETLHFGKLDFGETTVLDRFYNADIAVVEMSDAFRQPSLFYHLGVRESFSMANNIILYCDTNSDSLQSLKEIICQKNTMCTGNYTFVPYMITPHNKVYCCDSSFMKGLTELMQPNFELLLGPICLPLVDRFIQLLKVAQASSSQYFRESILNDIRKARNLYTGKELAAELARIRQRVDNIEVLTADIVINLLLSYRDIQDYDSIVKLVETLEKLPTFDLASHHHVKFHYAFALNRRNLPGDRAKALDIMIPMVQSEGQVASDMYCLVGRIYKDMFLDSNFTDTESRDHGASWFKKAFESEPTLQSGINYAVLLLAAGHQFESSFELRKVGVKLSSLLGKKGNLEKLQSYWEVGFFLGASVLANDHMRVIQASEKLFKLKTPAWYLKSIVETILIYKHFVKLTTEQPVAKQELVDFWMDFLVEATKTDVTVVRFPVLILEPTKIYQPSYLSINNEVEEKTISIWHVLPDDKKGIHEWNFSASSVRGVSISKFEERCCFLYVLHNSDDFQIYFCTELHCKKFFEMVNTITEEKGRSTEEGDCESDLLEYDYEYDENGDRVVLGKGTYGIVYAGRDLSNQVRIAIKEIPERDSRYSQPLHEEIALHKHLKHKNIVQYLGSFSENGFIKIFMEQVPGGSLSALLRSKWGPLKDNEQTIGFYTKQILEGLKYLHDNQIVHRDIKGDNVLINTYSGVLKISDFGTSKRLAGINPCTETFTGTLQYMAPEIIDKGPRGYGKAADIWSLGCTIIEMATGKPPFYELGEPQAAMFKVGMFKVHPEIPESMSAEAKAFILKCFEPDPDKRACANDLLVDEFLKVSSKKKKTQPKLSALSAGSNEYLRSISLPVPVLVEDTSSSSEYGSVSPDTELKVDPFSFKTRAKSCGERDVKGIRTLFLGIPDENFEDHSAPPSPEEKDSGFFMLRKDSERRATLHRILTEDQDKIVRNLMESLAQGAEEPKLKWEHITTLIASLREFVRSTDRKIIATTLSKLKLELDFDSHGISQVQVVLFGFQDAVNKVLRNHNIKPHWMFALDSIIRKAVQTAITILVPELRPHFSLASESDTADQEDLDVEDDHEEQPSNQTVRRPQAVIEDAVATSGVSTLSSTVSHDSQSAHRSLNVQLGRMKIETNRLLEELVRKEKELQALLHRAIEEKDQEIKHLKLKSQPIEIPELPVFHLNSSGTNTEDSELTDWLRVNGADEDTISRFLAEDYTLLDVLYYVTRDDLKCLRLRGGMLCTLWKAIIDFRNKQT
ASK1 was purchased from Thermofisher (Catalogue # PV4011), ATP was purchased from Sigma (Catalogue # A7699), HI-TRF® KinEASE™ Assay System was obtained from Cisbio (Bedford, Mass.). […] HTRF® KinEASE™-STK is a generic method for measuring serine/threonine kinase activities using a time-resolved fluorescence resonance energy transfer (TR-FRET) immunoassay. […] 100 Um ATP is added to start kinase reaction and incubated for 3 hours. The STK3-antibody labeled with Eu^3+-Cryptate and 125 Nm streptavidin-XL665 are mixed in a single addition with stop reagents provided by the Cisbio kit used to stop the kinase reaction. […] The resulting TR-FRET is proportional to the phosphorylation level. Staurosporine was used as the positive control. IC50 was determined by Xlfit 5.3.
By using above method, the inhibition of ASK1 was evaluated for the compounds of Formula (I).
In turn, `CCOC(=O)N1CCc2cc(F)c(C(=O)Nc3cccc(-c4nnnn4C(C)C)n3)cc2C1` [Example 30] had an IC50 of 10 to 100 nM.

For the compound `CC(C)n1nnnc1-c1cccc(NC(=O)c2cc3c(cc2F)CCN(S(=O)(=O)C2CC2)C3)n1` [Example 88], the IC50 is > 1000 nM.

The compound `COCCOC(=O)N1CCc2cnc(C(=O)Nc3cccc(-c4nnnn4[C@H](C)CO)n3)cc2C1` [Example 158] gave an IC50 of 1 to 10 nM.

`CC(=O)OC[C@@H](C)n1nnnc1-c1cccc(NC(=O)c2cc3c(cc2F)CCN(C(=O)N2CCCC2)C3)n1` [Example 73]: the IC50 is > 1000 nM.

The compound `C[C@H](CO)n1nnnc1-c1cccc(NC(=O)c2cc3c(cn2)CCN(S(=O)(=O)CCC(F)(F)F)C3)n1` [Example 150] had an IC50 of 1 to 10 nM.

Compound `CCNC(=O)N1CCc2cc(F)c(C(=O)Nc3cccc(-c4nncn4C(C)C)n3)cc2C1` [Example 52] showed an IC50 of 1 to 10 nM.

`CC(C)n1nnnc1-c1cccc(NC(=O)c2cc3c(cc2F)CCN(S(=O)(=O)C2CCCC2)C3)n1` [Example 85]: the IC50 lay within 10 to 100 nM.

The compound `CC(C)n1nnnc1-c1cccc(NC(=O)c2cc3c(cc2F)CCN(C(=O)OCc2ccccc2)C3)n1` [Example 31] gave an IC50 of 10 to 100 nM.

Turning to `CC(C)CS(=O)(=O)N1CCc2cnc(C(=O)Nc3cccc(-c4nnnn4[C@H](C)CO)n3)cc2C1` [Example 161], the IC50 fell in the range of 1 to 10 nM.

Regarding `CC(C)n1nnnc1-c1cccc(NC(=O)c2cc3c(cc2F)CCN(C(=O)NC2CCCC2)C3)n1` [Example 56], the IC50 lay within 10 to 100 nM.

Consider `C[C@H](CO)n1nnnc1-c1cccc(NC(=O)c2cc3c(cn2)CCN(C(=O)C2CCCC2)C3)n1` [Example 146, (R)-6-(cyclopentanecarbonyl)-N-(6-(1-(1-hydroxypropan-2-yl)-1H-tetrazol-5-yl)pyridin-2-yl)-5,6,7,8-tetrahydro-2,6-naphthyridine-3-carboxamide], for which the IC50 was 1 to 10 nM.

`CC(C)n1nnnc1-c1cccc(NC(=O)c2cc3c(cn2)CCN(C(=O)C2CCCC2)C3)n1` [Example 119] displayed an IC50 of 1 to 10 nM.

For `CC(C)n1cnnc1-c1cccc(NC(=O)c2ccc3c(c2)CNC3)n1` [Example 9, N-(6-(4-isopropyl-4H-1,2,4-triazol-3-yl)pyridin-2-yl)isoindoline-5-carboxamide], the 50% inhibitory concentration (IC50) was > 1000 nM.

In the case of `CC(C)n1nnnc1-c1cccc(NC(=O)c2cc3c(cc2F)CCN(C(=O)N2CCN(C)CC2)C3)n1` [Example 91], the IC50 fell in the range of 10 to 100 nM.

`CC(C)N1Cc2ccc(C(=O)Nc3cccc(-c4nnnn4C(C)C)n3)cc2C1=O` [Example 1, 2-isopropyl-N-(6-(1-isopropyl-1H-tetrazol-5-yl)pyridin-2-yl)-3-oxoisoindoline-5-carboxamide] came in with an IC50 of 100 to 1000 nM.

For the compound `C[C@H](CO)n1nnnc1-c1cccc(NC(=O)c2cc3c(cn2)CCN(C(=O)OCC(F)(F)F)C3)n1` [Example 126], the IC50 was < 1 nM.

As to `CCN(CC)C(=O)N1CCc2cnc(C(=O)Nc3cccc(-c4nnnn4C(C)C)n3)cc2C1` [Example 113], the IC50 was 1 to 10 nM.

Consider `CC(C)n1nnnc1-c1cccc(NC(=O)c2ccc3c(c2)CN(C(=O)OCc2ccccc2)C3)n1` [Example 2], for which the IC50 is > 1000 nM.

In turn, `C[C@H](CO)n1nnnc1-c1cccc(NC(=O)c2cc3c(cn2)CCN(C(=O)OC2CCC2)C3)n1` [Example 157] had an IC50 of 1 to 10 nM.

As to `COCCN1CCc2cnc(C(=O)Nc3cccc(-c4nnnn4[C@H](C)CO)n3)cc2C1` [Example 134], the IC50 lay within 1 to 10 nM.

Turning to `CC(C)n1cnnc1-c1cccc(NC(=O)c2cc3c(cn2)CN(C(=O)OCc2ccccc2)C3)n1` [Example 179, benzyl 6-((6-(4-isopropyl-4H-1,2,4-triazol-3-yl)pyridin-2-yl)carbamoyl)-1,3-dihydro-2H-pyrrolo[3,4-c]pyridine-2-carboxylate], the IC50 fell in the range of 10 to 100 nM.

Regarding `C=CCNC(=O)N1CCc2ccc(C(=O)Nc3cccc(-c4nncn4C(C)C)n3)cc2C1` [Example 33], the IC50 was in the range of 10 to 100 nM.

Compound `CC(C)N1CCc2cnc(C(=O)Nc3cccc(-c4nnnn4[C@H](C)CO)n3)cc2C1` [Example 135] displayed an IC50 of 10 to 100 nM.

Take `CC(=O)OC[C@@H](C)n1nnnc1-c1cccc(NC(=O)c2cc3c(cc2F)CCN(C(=O)OCc2ccccc2)C3)n1` [Example 109]: the half-inhibitory concentration (IC50) was > 1000 nM.

In turn, `CC(C)n1nnnc1-c1cccc(NC(=O)c2cc3c(cn2)CCN(S(=O)(=O)CC2CC(F)(F)C2)C3)n1` [Example 139] had an IC50 of 1 to 10 nM.

In turn, `CC(C)n1cnnc1-c1cccc(NC(=O)c2cc3c(cc2F)CCN(S(=O)(=O)CC2CC2)C3)n1` [Example 43] had an IC50 of 10 to 100 nM.

In the case of `C[C@H](CO)n1nnnc1-c1cccc(NC(=O)c2cc3c(cn2)CCN(C(=O)NC2CC2)C3)n1` [Example 131], the IC50 lay within 1 to 10 nM.

`CC(C)n1cnnc1-c1cccc(NC(=O)c2ccc3c(c2)CNCC3)n1` [Example 37, N-(6-(4-isopropyl-4H-1,2,4-triazol-3-yl)pyridin-2-yl)-1,2,3,4-tetrahydroisoquinoline-7-carboxamide] had an IC50 of 100 to 1000 nM.

Compound `COc1cc2c(cc1C(=O)Nc1cccc(-c3nncn3C(C)C)n1)C(=O)N(C(C)C)C2` [Example 175, 2-isopropyl-N-(6-(4-isopropyl-4H-1,2,4-triazol-3-yl)pyridin-2-yl)-6-methoxy-3-oxoisoindoline-5-carboxamide] registered an IC50 of 10 to 100 nM.

In the case of `CCCN1CCc2cnc(C(=O)Nc3cccc(-c4nnnn4[C@H](C)CO)n3)cc2C1` [Example 165], the IC50 was in the range of 1 to 10 nM.

For `CCN(C)C(=O)N1CCc2cc(F)c(C(=O)Nc3cccc(-n4nnnc4C(C)C)n3)cc2C1` [Example 101], the IC50 is > 1000 nM.

For `CCOC(=O)N1Cc2ccc(C(=O)Nc3cccc(-c4nnnn4C(C)C)n3)cc2C1` [Example 16], the IC50 was > 1000 nM.

Take `COc1cc2c(cc1C(=O)Nc1cccc(-c3nnnn3C(C)C)n1)C(=O)N(C(C)C)C2` [Example 174]: the IC50 lay within 100 to 1000 nM.

As to `CC(C)COC(=O)N1CCc2ccc(C(=O)Nc3cccc(-c4nncn4C(C)C)n3)cc2C1` [Example 66], the IC50 lay in the range of 10 to 100 nM.

In the case of `CCCOC(=O)N1CCc2ccc(C(=O)Nc3cccc(-c4nncn4C(C)C)n3)cc2C1` [Example 35], the IC50 lay within 10 to 100 nM.

For `CC(C)n1nnnc1-c1cccc(NC(=O)c2cc3c(cc2F)CCN(C(=O)N2CCCC2)C3)n1` [Example 93], the IC50 lay in the range of 10 to 100 nM.

Compound `COCCC(=O)N1CCc2cnc(C(=O)Nc3cccc(-c4nnnn4[C@H](C)CO)n3)cc2C1` [Example 122] returned an IC50 of 1 to 10 nM.

As to `CC(C)n1cnnc1-c1cccc(NC(=O)c2cc3c(cc2F)CCN(S(=O)(=O)C2CC2)C3)n1` [Example 47], the half-maximal inhibitory concentration (IC50) fell in the range of 1 to 10 nM.

`CC(C)n1cnnc1-c1cccc(NC(=O)c2ccc3c(c2)CN(C(=O)OCCF)CC3)n1` [Example 65] came in with an IC50 of 10 to 100 nM.

`CCCCNC(=O)N1CCc2ccc(C(=O)Nc3cccc(-c4nncn4C(C)C)n3)cc2C1` [Example 62] came in with an IC50 of 1 to 10 nM.

In the case of `CC(C)n1cnnc1-c1cccc(NC(=O)c2cc3c(cc2F)CCN(C(=O)N2CCCC2)C3)n1` [Example 44], the IC50 was 1 to 10 nM.

As for `CC(C)n1cnnc1-c1cccc(NC(=O)c2cc3c(cc2F)CCN(S(=O)(=O)NC2CC2)C3)n1` [Example 20, 2-(N-cyclopropylsulfamoyl)-6-fluoro-N-(6-(4-isopropyl-4H-1,2,4-triazol-3-yl)pyridin-2-yl)-1,2,3,4-tetrahydroisoquinoline-7-carboxamide], the IC50 lay in the range of 1 to 10 nM.

Regarding `C=CCN1CCc2ccc(C(=O)Nc3cccc(-c4nncn4C(C)C)n3)cc2C1` [Example 39, 2-allyl-N-(6-(4-isopropyl-4H-1,2,4-triazol-3-yl)pyridin-2-yl)-1,2,3,4-tetrahydroisoquinoline-7-carboxamide], the IC50 lay within 100 to 1000 nM.

Consider `C[C@H](CO)n1nnnc1-c1cccc(NC(=O)c2cc3c(cn2)CCN(C(=O)CCC(F)(F)F)C3)n1` [Example 123], for which the IC50 was in the range of 1 to 10 nM.

In turn, `CC(C)n1cnnc1-c1cccc(NC(=O)c2cc3c(cc2F)CCN(C(=O)OCc2ccccc2)C3)n1` [Example 53, benzyl 6-fluoro-7-((6-(4-isopropyl-4H-1,2,4-triazol-3-yl)pyridin-2-yl)carbamoyl)-3,4-dihydroisoquinoline-2(1H)-carboxylate] gave an IC50 of 10 to 100 nM.

`CC(C)n1nnnc1-c1cccc(NC(=O)c2cc3c(cn2)CCN(S(=O)(=O)C2CC2)C3)n1` [Example 110, 6-(cyclopropylsulfonyl)-N-(6-(1-isopropyl-1H-tetrazol-5-yl)pyridin-2-yl)-5,6,7,8-tetrahydro-2,6-naphthyridine-3-carboxamide]: the IC50 was 1 to 10 nM.

Compound `CCn1cc(COC(=O)N2CCc3cnc(C(=O)Nc4cccc(-c5nnnn5[C@H](C)CO)n4)cc3C2)cn1` [Example 188, (1-ethyl-1H-pyrazol-4-yl)methyl (R)-7-((6-(1-(1-hydroxypropan-2-yl)-1H-tetrazol-5-yl)pyridin-2-yl)carbamoyl)-3,4-dihydro-2,6-naphthyridine-2(1H)-carboxylate] returned an IC50 of 1 to 10 nM.

In turn, `C[C@H](CO)n1nnnc1-c1cccc(NC(=O)c2cc3c(cn2)CCN(C(=O)NCc2ccccc2)C3)n1` [Example 129] returned an IC50 of 1 to 10 nM.

With `CCN(C)C(=O)N1CCc2cnc(C(=O)Nc3cccc(-c4nnnn4C(C)C)n3)cc2C1` [Example 115], the IC50 is 1 to 10 nM.

`CCN1CCc2cc(F)c(C(=O)Nc3cccc(-c4nnnn4C(C)C)n3)cc2C1=O` [Example 98, 2-ethyl-6-fluoro-N-(6-(1-isopropyl-1H-tetrazol-5-yl)pyridin-2-yl)-1-oxo-1,2,3,4-tetrahydroisoquinoline-7-carboxamide]: the IC50 was > 1000 nM.
